Assays:
Cavendish banana plants = test: Field trial: growth and development of banana plants transplanted into metam sodium treated soil; format: in vivo, Musa (Cavendish banana)
Experimental: The analyses described in this example were carried out in the Philippines in a field in which Musa trees (specifically bananas) were to be planted, in the spring (beginning in March). Final determinations were carried out in September of the same year.
(§1) Metam Sodium Application. Metam sodium 510 SL (equivalent to 42% w/w) was applied to soil at the following doses: 0 liters per hectare (L/ha), 750 L/ha, 1500 L/ha, 2250 L/ha, 3000 L/ha.
(§2) Prior to injection, soil was prepared using a rototiller to break the soil structure from 0 cm to 80 cm deep, allowing for the smooth and even injection application by an injection machine. The soil was then leveled and made uniform, and the metam sodium was applied at two depths: 30 cm and 60 cm, using injection methods. The temperature was at a minimum of 10 °C and soil humidity was between 50 and 60% holding capacity, allowing the applied product to transform from metam sodium (liquid) to MITC (gas).
(§3) The application was made using an injection machine wherein the machine lowered shanks and began moving forward such that the shanks lowered to a depth of 60 cm and injectors applied the metam sodium into the soil. When the injection at 60 cm was complete, the process was repeated for the entire field at 30 cm. The treated soil in the field was then sealed using a packer roller (which was part of the injection machinery, located at the back end of the machine), after each application.
Plant Selection and Transplantation. Cavendish banana plants were used for this investigation. In order to avoid plants already contaminated by other soil, all plants were produced in vitro using art-recognized methods. Plants were transplanted into the field 14 days after the final soil reading was taken (21 days after treatment).
Data Gathering. Data were gathered at monthly intervals beginning three months after banana plants were transplanted. A total of three data collection sessions were conducted. Data including the number of leaves, plant height, and girth size were collected.

parasitic nematodes = test: Nematode analysis of soil samples from the treated field; format: in vivo; conditions: any tested soil samples
Experimental: (§4) Soil Analysis. Soil samples were obtained at 20, 40, and 60 cm before application and every 24 hours beginning 48 hours after application, for seven days.
Plant Pathology Analysis. Soil samples used for Panama Disease and nematode analyses were aseptically isolated in culture medium and incubated for seven days at room temperature. Organisms were identified as follows: 20 grams of composite soil sample was diluted with 40 mL distilled water (dH2O); 1 drop of Tween 20 detergent was added, and the sample mixed. A 1 mL aliquot was taken from the solution and diluted with 9 mL dH2O; three further serial dilutions were made. From each dilution, 100 μL were spread on solid Komada growth medium (Sun et al., Phytopathology 68: 1672-1673, 1978). Growth could be seen 7 days after inoculation.

Foc TR4 chlamydospores = test: In vitro efficacy of metam sodium on Foc TR4 chlamydospores (colonies on PDA plates); format: cell-based, Fusarium oxysporum f. sp. cubense Tropical Race 4
Experimental: Foc TR4 chlamydospores were extracted from infested soil and incubated with a dilution series of metam sodium for 5 min and 60 min at room temperature. Thereafter, the samples were diluted 10×to get reduction of the treatment and sufficient dilution of chlamydospores to avoid lack of resolution when grown on plate. Aliquots of 100 μl were plated on PDA plates in duplicate and incubated for 3 days at 25° C. Plates were photographed and scored.

[1] = test system: F. oxysporum f. sp. cubense; test: Panama disease analysis of soil samples from the treated field (Komada medium); format: in vivo, Fusarium oxysporum f. sp. cubense Tropical Race 4; conditions: any of the treated groups (750-3000 L/ha); any day post application
Experimental: as §1, §2, §3, §4
Plant Pathology Analysis. […]

[2] = 750 L/ha, six months after treatment
[3] = 1500 L/ha, six months after treatment
[4] = 2250 L/ha, six months after treatment
[5] = 3000 L/ha, six months after treatment

`CNC(=S)[S-].[Na+]` [metam sodium, sodium N-methyldithiocarbamate] was tested, and the “average girth size of banana plant, increase” value (Cavendish banana plants; 750 L/ha) was ~1 cm, the “average height of banana plant, increase” value (Cavendish banana plants; 750 L/ha) was ~5 cm and the “percent of plants at either shooting or bagging stage” value (Cavendish banana plants; [2]) was 11%. The “percent of plants at shooting stage” value (Cavendish banana plants; [2]) was 9%, the “plants reaching bagging stage” value (Cavendish banana plants; [2]) was “did not have a meaningful effect” and the “average girth size of banana plant, increase” value (Cavendish banana plants; 1500-3000 L/ha) was 4-6 cm. The “average height of banana plant, increase” value (Cavendish banana plants; 1500-3000 L/ha) was 20-23 cm, the “percent of plants at either shooting or bagging stage” value (Cavendish banana plants; [3]) was 28% and the “percent of plants at shooting stage” value (Cavendish banana plants; [3]) was 10%. The “percent of plants at bagging stage” value (Cavendish banana plants; 1500 to 3000 L/ha, six months after treatment) was 11-19%, the “percent of plants at either shooting or bagging stage” value (Cavendish banana plants; [4]) was 27% and the “percent of plants at shooting stage” value (Cavendish banana plants; [4]) was 17%. The “percent of plants at either shooting or bagging stage” value (Cavendish banana plants; [5]) was 35%, the “percent of plants at shooting stage” value (Cavendish banana plants; [5]) was 22% and the “average number of leaves, increase” value (Cavendish banana plants; regardless of dose applied (750-3000 L/ha), vs 0 L/ha) was “roughly 1.5 fold”. The “parasitic nematodes in soil” value (parasitic nematodes) was “no parasitic nematodes were noted”, the “reducing the number of surviving chlamydospores, measured as growing colonies” value (Foc TR4 chlamydospores; 100× dilution, prolonged incubation (60 vs 5 minutes)) was “more effective” and the “efficacy on Foc TR4 colony growth on plates” value (Foc TR4 chlamydospores; dilution of 10×, incubation time 5 minutes) was “effective”. The “efficacy on Foc TR4 colony growth on plates” value (Foc TR4 chlamydospores; dilution of 100×, 5 and 60 minutes) was “less effective”, the “reduction in viability of Foc TR4 chlamydospores” value (Foc TR4 chlamydospores; first test, dilutions from 1000 up to 10×10^6-fold, 60 min) was “No significant reduction in viability” and the “efficacy against Foc TR4 chlamydospores under in vitro conditions” value (Foc TR4 chlamydospores; overall, dependent on high concentrations) was “effective against Foc TR4 chlamydospores”. For the same compound, the “efficacy on surviving chlamydospores” value (Foc TR4 chlamydospores; second test, 10× and 100× dilutions) was “(partially) effective”, the “number of chlamydospores that survived” value (Foc TR4 chlamydospores; second test, dilutions of 1000× and more) was “did not affect the number of chlamydospores that survived” and the “Foc TR4 in soil (soil contamination)” value [1] was “No Foc TR4 was detected”.
